# From patent publication US10869834B2, “Treatment of inflammatory bowel disease” (University College Dublin, National University of Ireland, …, priority 2016, dated 2020)
# Tests used:
# C. rodentium [1] = conditions: single bolus of 1 mM H2O2 in DMEM, analysed 3 h later
# Procedure: (§1) Invasion and adhesion assays were performed as previously reported (Cell Host Microbe 12:47-59, 2012). Bacterial cell viability was assessed using the XTT (2,3-Bis-(2-Methoxy-4-Nitro-5-Sulfophenyl)-2H-Tetrazolium-5-Carboxanilide) assay. For in vitro experiments bacteria were exposed at time zero once to 0.7 mM H2O2, except for C. jejuni (5 mM), and analyzed after indicated time periods (up to 3 h, except C. jejuni up to 6 h).
# L. monocytogenes [2] = test system: L. monocytogenes
# Procedure: as §1
# S. pneumoniae [3] = conditions: 0.7 mM H2O2 for 3 h
# Procedure: as §1
# L. monocytogenes [4] = conditions: Cos-NOX4 cell-produced H2O2 vs Cos-p22
# Procedure: Exposure of bacteria to H2O2 released by Cos cells stable expressing the NOX4-p22^phox complex or as negative control Cos cells expressing only p22^phox was performed using Boyden chambers. Cells in DMEM, 10% FBS medium were seeded into the bottom chamber 24 h before start of the experiment and then moved to microaerophilic conditions for 3 h. Bacteria grown in microaerophilic conditions were resuspended in 5% O2 conditioned DMEM, 3-10% FBS medium, placed on top of the filter (3 μm pore size) and incubated for 3 h. Bacteria were harvested from the filter for analysis.
# mucus secretion = conditions: Birchenough G. et al., Science 352:1535-1542; cited from earlier work
# [5] = test system: bacterial phosphotyrosine content; conditions: 0.7 mM H2O2, 3 h; when iron is present; 5% O2
# Procedure: C. jejuni 81-176, L. monocytogenes EGDe and K. pneumoniae were grown microaerophilic to mid-log phase in minimal essential media. Bacteria were collected by centrifugation (5000 rpm, 10 min) and diluted to OD600=0.2 in MEM. Iron (II) sulfate (40 μM) was added as indicated and cultures were grown microaerophilic until OD600=0.5 was reached. To C. jejuni 81-176 cultures 5 mM H2O2 was added and the growth continued microaerophilic for 8 h. L. monocytogenes and K. pneumoniae cultures were exposed to 0.7 mM H2O2 for 3 h in microaerophilic conditions. Bacteria were then diluted to OD600=0.2, collected by centrifugation, washed twice with 25 mM Tris-HCl, resuspended in 30 μl Laemmli buffer and heated for 5 min at 95° C. Boiled samples were loaded on 10% SDS-PAGE gels, separated by electrophoresis and immunoblotted. The control samples followed an identical protocol without supplemental iron or added H2O2.
# [6] = test system: bacterial phosphotyrosine signalling; conditions: H2O2 generated by colon cells, human biopsies and rabbit loop model during pathogen exposure; co-culture 3 h
# Procedure: Bacteria in RPMI 1640 containing 3% FBS (OD600=0.4; 10^7 bacteria, 1 ml) were incubated with HCT-8 cells at 37° C. in microaerophilic conditions with MOI 50. DPI pretreatment of HCT-8 cells was for 20 min (25 μM). Non-adherent bacteria were removed by centrifugation of media (3300 g, 5 min), and were used for immunoblotting. […] Exposure of bacteria to H2O2 released by Cos cells stable expressing the NOX4-p22^phox complex or as negative control Cos cells expressing only p22^phox was performed using Boyden chambers. Cells in DMEM, 10% FBS medium were seeded into the bottom chamber 24 h before start of the experiment and then moved to microaerophilic conditions for 3 h. Bacteria grown in microaerophilic conditions were resuspended in 5% O2 conditioned DMEM, 3-10% FBS medium, placed on top of the filter (3 μm pore size) and incubated for 3 h. Bacteria were harvested from the filter for analysis.
# Polarized In Vitro Organ Culture (pIVOC): pIVOC experiments of colon biopsies were performed as described (Cell Host Microbe 12:47-59, 2012). Bacterial infections were conducted using microaerophilic preconditioned media or buffers. L. monocytogenes was added at a final OD600=0.2 to the apical side of biopsies and H2O2 release was measured. Controls were either non-infected biopsies or biopsies pretreated with 20 μM DPI for 20 min before addition of C. jejuni or L. monocytogenes to the top chamber. […]
# murine colitis (3% DSS) = assay: In-vivo murine colitis model (3% DSS), administration of H2O2-producing bacteria; parameters: species or system mice
# Procedure: Wildtype mice were treated with 1×10^9 bacteria by daily oral gavage 5 days before, during colitis (3% DSS in water) and until the end of the experiment (day 16). On day 7 of DSS treatment, DSS was replaced with water to enable the healing process. […] One-way Anova with Tukey post-hoc test; **p=0.01, ***p=0.001.
# S. pneumoniae [7] = conditions: bacteria pretreated with 0.7 mM H2O2 for 3 h
# Procedure: Biofilm was analyzed using SYTO9. Cultured bacteria were grown in microaerophilic conditions overnight. The bacterial culture was then adjusted to OD600=0.1 and 1 ml of this solution was added to an optical grade plastic bottom μ-plate 24 well. Bacteria were incubated for an additional 72 h in microaerophilic conditions. Bacteria were washed gently with autoclaved water to remove planktonic cells and fixed with 3% paraformaldehyde in PBS for 1 h. Images were then analyzed for total intensity of SYTO9 fluorescence over the imaged volumes using Fiji. Briefly, after staining with SYTO9, 50 independent 13.2 μm stacks of 60 images at a 0.22 μm Z resolution were imaged for all conditions. The mean fluorescence of the different slices in the stacks was measured and a standard deviation was computed from the aggregated data per slice.
# C. rodentium [8] = assay: C. rodentium infection of mice treated with L. johnsonii by oral gavage; assay type: in vivo, C57Bl/6 mice; conditions: daily oral gavage with NCC533 or NCC9359 prior and during infection; 6 dpi
# Procedure: Cyba^flox/flox mice were bred to B6.SJL-Tg (Vil-cre) 997Gum/J mice (Jackson Laboratories) to generate mice with a targeted deletion of p22^phox in the epithelium of the small intestine and colon (p22ΔIEC). Mice were infected by oral gavage with 0.3 ml of an overnight culture of Luria Bertani broth containing 5×10^9 Citrobacter rodentium and analyzed at day 6 post infection. L. johnsonii NCC533/NCC9359 pretreatment and treatment: L. johnsonii NCC533 and NCC9359 strains were administered at a concentration of 10^9 CFU to WT mice via oral gavage starting 3 days prior C. rodentium inoculation and daily during C. rodentium infection. For histopathology Carnoy-fixed distal colons were embedded in paraffin and 5 μm sections were stained with hematoxylin and eosin (H&E).
# C. rodentium [9] = conditions: H2O2 generated by Cos-NOX4 cells vs Cos-p22 negative control; 4 h, DMEM; separated by a filter; n=4
# Procedure: (§2) Cos-NOX4 and Cos-p22 cells in DMEM, 5% FBS (Cell Signal 18:69-82, 2006; J Biol Chem 283:35273-82, 2008; Mol Cell Biol 30:961-75, 2010) were seeded into the lower chamber of a Boyden chamber (pore width 0.4 μm) 48 h before the assay. Lactobacilli grown in DMEM were suspended in media onto the upper chamber. Co-culture was initiated for 3-4 h in DMEM, 5% FBS media followed by harvesting of bacteria on the filter for RNA isolation.
# EPEC = conditions: H2O2 released from Cos-NOX4 cells (not Cos-p22) for 3 h; separated by a filter
# Procedure: as §2
# [10] = bacteria pretreated with 0.7 mM H2O2 for 3 h
# [11] = daily oral gavage 5 days before, during colitis and until day 16
smiles,measurement,setting,value
"OO [H2O2, hydrogen peroxide]",ler expression in C. rodentium (qPCR),C. rodentium [1],Downregulation of ler
same,bacterial viability after treatment,L. monocytogenes [2]; 0.7 mM H2O2 for 3 h,remained fully viable
same,adherence to HCT-8 colon cells,L. monocytogenes [2]; [10],reduced
same,invasion of HCT-8 colon cells,L. monocytogenes [2]; [10],reduced
same,bacterial viability after treatment,S. pneumoniae [3],remained fully viable
same,bacterial phosphotyrosine content (anti-phosphotyrosine immunoblot),L. monocytogenes [4],marked decrease in bacterial phosphotyrosine content
same,mucus secretion,mucus secretion,can restore mucus secretion
same,bacterial phosphotyrosine content (anti-phosphotyrosine immunoblots),[5],decreases bacterial phosphotyrosine content
same,bacterial phosphotyrosine signalling (anti-phosphotyrosine immunoblots),[6],downregulates bacterial phosphotyrosine signalling
same,"recovery after insult (disease index, body weight)","murine colitis (3% DSS); daily administration, low nanomolar H2O2 (via NCC533, 1x10^9 bacteria oral gavage), DSS replaced with water on day 7",accelerates recovery after insult
same,inflammation (colon length as indicator),murine colitis (3% DSS); [11],downregulates inflammation
same,tissue restitution (H&E staining of colon day 11),murine colitis (3% DSS); [11],supports rapid tissue restitution
same,biofilm formation (mean SYTO9 fluorescence),S. pneumoniae [7],Reduced biofilm formation
same,host epithelial tissue damage (H&E staining of colon sections),C. rodentium [8],required to prevent host epithelial tissue damage
same,ler and escN expression in C. rodentium (qPCR),C. rodentium [9],Downregulation of LEE island genes
same,ler and escN expression in EPEC (qPCR),EPEC,Downregulation of LEE island genes
